pEC50: −log10 of the molar value. Where only a bound is given, the exact number is not on record here.

The test system of data set [1] is Human immunodeficiency virus 1. Nature of the data set: Antiviral activity against HIV-1 NL4-3 infected in PBMC (unknown origin) assessed as reduction in viral replication. Type of data set: functional, organism-based. The conditions noted are these: Human immunodeficiency virus 1, NL4-3, PBMC.
Data set [2] can be described thus: Cytotoxicity against PBMC (unknown origin) assessed as reduction in cell viability. The format is toxicity, cell-based.
Data set [3] is described as follows: Selectivity index, ratio of CC50 for hepatoma cells (unknown origin) to EC50 for HCV-1 infected in hepatoma cells (unknown origin). Type of data set: toxicity, cell-based. The conditions noted are these: read-out: Ratio CC50/EC50.
Data set [4] concerns Hepatitis C virus. Description: Antiviral activity against HCV-1 infected in human LucUbiNeo-ET cells assessed as reduction in viral replication incubated for 2 days by luminometry. Type of data set: functional, organism-based, Hepacivirus hominis. The conditions noted are these: genotype 1, LucUbiNeo-ET, 48 h.
Data set [5] is described as follows: Cytotoxicity against human LucUbiNeo-ET cells assessed as reduction in cell viability by MTT assay. The format is functional.
Data set [6] is described as follows: Selectivity index, ratio of CC50 for human LucUbiNeo-ET cells to EC50 for HCV-1 infected in human LucUbiNeo-ET cells. Type of data set: toxicity, cell-based. The conditions noted are these: read-out: Ratio CC50/EC50.
Data set [7] concerns West Nile virus. Description: Antiviral activity against WNV infected in human Huh-7 cells assessed as reduction in viral replication. The format is functional, organism-based.
Data set [8] in a line: Selectivity index, ratio of CC50 for human Huh-7 cells to EC50 for WNV infected in human Huh-7 cells. The format is toxicity, cell-based. To be noted: read-out: Ratio CC50/EC50.
In data set [9] the test system is Japanese encephalitis virus. Description: Antiviral activity against JEV SA14-14-2 infected in hamster BHK-21 cells assessed as reduction in viral replication by plaque formation assay. The format is functional, organism-based. To be noted: SA14-14-2, BHK-21.
Data set [10] in a line: Cytotoxicity against hamster BHK-21 cells assessed as reduction in cell viability at MOI of 0.01 incubated for 48 hrs by plaque formation assay. The format is toxicity, cell-based, Mesocricetus auratus.
Data set [11] is described as follows: Selectivity index, ratio of CC50 for hamster BHK-21 cells to EC50 for JEV SA14-14-2 infected in hamster BHK-21 cells. Type of data set: toxicity, cell-based. To be noted: read-out: Ratio CC50/EC50.
The test system of data set [12] is dengue virus type 2. Nature of the data set: Antiviral activity against DENV-2 New Guinea C infected in human Huh-7 cells assessed as reduction in viral replication. Type of data set: functional, organism-based.
Data set [13] is described as follows: Selectivity index, ratio of CC50 for human Huh-7 cells to EC50 for DENV-2 New Guinea C infected in human Huh-7 cells. Type of data set: toxicity, cell-based. The conditions noted are these: read-out: Ratio CC50/EC50.
Data set [14] in a line: Half life in rat administered intravenously. The format is ADME. The conditions noted are these: in vivo, route iv.
A short description of data set [15]: Selectivity index, ratio of CC50 for PBMC (unknown origin) to EC50 for HIV-1 NL4-3 infected in PBMC (unknown origin). Type of data set: toxicity. To be noted: read-out: Ratio CC50/EC50.

With `CCCCc1cn(-c2ccc(NC(=O)Nc3ccccc3C)cc2)nn1`, the negative logarithm of the EC50 (pEC50) was 5.96 in data set [1]; 6.01 in data set [4]; 4.78 in [7]; 4.70 in data set [9]; 5.59 in data set [12]. For the same compound, the CC50 in data set [2] is above 100 µM; in data set [5], 49.8 µM. The selectivity ratio was above 200 in data set [3]; 51 in [6]; above 12 in data set [8]; above 2.5 in [11]; 78 in [13]; 91 in data set [15]. Also, the CC50 at 48 h in [10] was above 50 µM. Also, the half-life in data set [14] is 180 min.

Values taken from ChEMBL document CHEMBL5214928, “DEAD-Box Helicase DDX3X as a Host Target against Emerging Viruses: New Insights for Medicinal Chemical Approaches” (J Med Chem, 2022).
